31 compounds from patent US11426397B2, “Piperidinyl- and piperazinyl-substituted heteroaromatic carboxamides as modulators of GPR6” (TAKEDA PHARMACEUTICAL COMPANY LIMITED, priority 2017, dated 2022) can be followed below.

The target in this assay is T1, GPR6 receptor expressed in CHO-K1 cells (Homo sapiens, UniProt P46095).
T1 construct: expressed in transfected cells
T1 sequence (P46095 whole entry): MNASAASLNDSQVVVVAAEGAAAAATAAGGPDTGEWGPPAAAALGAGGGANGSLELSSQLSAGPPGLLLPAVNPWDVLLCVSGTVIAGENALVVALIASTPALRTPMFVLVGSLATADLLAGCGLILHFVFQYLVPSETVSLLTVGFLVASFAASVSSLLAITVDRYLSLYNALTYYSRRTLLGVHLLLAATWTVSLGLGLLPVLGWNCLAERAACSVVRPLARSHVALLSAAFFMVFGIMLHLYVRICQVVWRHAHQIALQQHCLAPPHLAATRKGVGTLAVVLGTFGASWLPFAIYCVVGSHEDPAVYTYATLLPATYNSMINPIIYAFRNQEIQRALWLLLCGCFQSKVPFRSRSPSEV
Put plainly: In vitro inhibition of cAMP (EC50), cell-based HTRF cAMP assay. As to conditions: inhibition of constitutive cAMP activity of GPR6 in CHO-K1 cells. On the procedure: I. In Vitro Inhibition of cAMP (EC50)
This cell based assay measures the ability of test compounds to inhibit the constitutive cAMP activity of GPR6 receptor expressed in CHO-K1 cells. CHO cells are stably expressed with GPR6 receptor, whose expression is controlled by a tetracycline inducible element. The cells were cultured in medium containing F12K, 10% FBS, 1% Penn/Strep, 200 μg/mL Hygromycin. GPR6 receptor expression is induced for 20 hours with 2 μg/mL doxycycline (Sigma D9891) in growth media. After addition of doxycycline, the cells are plated at a density of 450-750 cells per well in 96-well half-volume black tissue culture plates (Costar) and placed in an incubator (37° C., 5% CO2) for 20 hours prior to cAMP assays.
Culture media is removed from the cells and they are washed with 50 μL/well of Ringer's Buffer (MgCl2 0.047 mg/mL, NaH2PO4 0.18 mg/mL, Na2HPO4 0.1 mg/mL, KCl 0.34 mg/mL, NaHCO3 1.26 mg/mL, D-glucose 1.8 mg/mL, NaCl 7 mg/mL; pH=7.4). The test compounds are suspended in DMSO, diluted in Ringer's Buffer containing 0.5% fatty acid free BSA plus 300 μM IBMX, and incubated on the cells for 45 minutes at 37° C. and 5% CO2. After incubation, the cells are conditioned for 10 minutes at room temp with Eu-cAMP tracer solution from a Perkin Elmer Lance HTRF Ultra cAMP assay kit (TRF0263). Then ULight™-anti-cAMP solution from the Lance HTRF kit is added and incubated on a shaker at room temp for 1 hour prior to HTRF detection in a Perkin Elmer Envision plate reader. EC50 curves are generated with a four-parameter logistic equation using GraphPad Prism 5.03.
Table 1 lists biological assay data (in vitro inhibition of cAMP) for some of the compounds shown in the examples, where larger pEC50 values represent higher activity or potency. All of the compounds shown in Table 1 were tested in accordance with a cell-based assay which measures the ability of test compounds to inhibit the constitutive cAMP activity of GPR6 receptor expressed in CHO-K1 cells (reported as pEC50). The assay is described in the specification under the heading “In vitro inhibition of cAMP (EC50).”
In general terms: In TR-FRET formats the signal depends on donor and acceptor labels being close together.
In the case of `COc1ncccc1C(=O)Nc1cc(C#N)nnc1N1CCC(Oc2ccc(F)cc2F)CC1` [Example 282, N-(6-cyano-3-(4-(2,4-difluorophenoxy)piperidin-1-yl)pyridazin-4-yl)-2-methoxynicotinamide], the “pEC50, in vitro inhibition of cAMP” value amounted to 7.2. As for `COc1ncccc1C(=O)Nc1cc(C#N)ccc1N1CCN(Cc2ccc(F)cc2C#N)CC1` [Example 291, N-(5-cyano-2-(4-(2-cyano-4-fluorobenzyl)piperazin-1-yl)phenyl)-2-methoxynicotinamide], the figure is 6.9.

With `COc1ccncc1C(=O)Nc1cc(C)cnc1N1CCC(Oc2ccc(F)cc2F)CC1` [Example 35, N-(2-(4-(2,4-difluorophenoxy)piperidin-1-yl)-5-methylpyridin-3-yl)-4-methoxynicotinamide], the “pEC50, in vitro inhibition of cAMP” value is given as 7.4. The value for `COc1ncccc1C(=O)Nc1cc(C#N)ccc1N1CCC(C(=O)c2ccccc2)CC1` [Example 70, N-(2-(4-benzoylpiperidin-1-yl)-5-cyanophenyl)-2-methoxynicotinamide] was 6.4; that for `COc1ccc(C(=O)Nc2cc(C#N)ccc2N2CCC(Oc3ccc(F)cc3F)CC2)nc1` [Example 133, N-(5-cyano-2-(4-(2,4-difluorophenoxy)piperidin-1-yl)phenyl)-5-methoxypicolinamide] was 7.1; that for `CCn1ncc(C(=O)Nc2cc(C#N)cnc2N2CCC(Oc3ccc(F)cc3F)CC2)c1OC` [Example 120, N-(5-cyano-2-(4-(2,4-difluorophenoxy)piperidin-1-yl)pyridin-3-yl)-1-ethyl-5-methoxy-1H-pyrazole-4-carboxamide] was 7.4. As for `N#Cc1ccc(N2CCC(Oc3ccc(F)cc3F)CC2)c(NC(=O)c2cnon2)c1` [Example 139, N-(5-cyano-2-(4-(2,4-difluorophenoxy)piperidin-1-yl)phenyl)-1,2,5-oxadiazole-3-carboxamide], the figure is less than 4.5; as for `COc1ncccc1C(=O)Nc1cc(C#N)ccc1N1CCN(C(C)c2ccc(F)cc2)CC1` (stereo not shown) [Example 288], 6.0; as for `COc1cc(F)ccc1C(=O)Nc1cc(C#N)cnc1N1CCC(Oc2ccc(F)cc2F)CC1` [Example 56, N-(5-cyano-2-(4-(2,4-difluorobenoxy)piperidin-1-yl)pyridin-3-yl)-4-fluoro-2-methoxybenzamide], 7.2. As for `COc1c(F)ccc(F)c1C(=O)Nc1cc(C#N)ccc1N1CCC(Oc2ccc(F)cc2F)CC1` [Example 189, N-(5-cyano-2-(4-(2,4-difluorophenoxy)piperidin-1-yl)phenyl)-3,6-difluoro-2-methoxybenzamide], the figure is 5.8. In the case of `N#Cc1ccc(N2CCC(Oc3ccc(F)cc3F)CC2)c(NC(=O)c2cnccn2)c1` [Example 44, N-(5-cyano-2-(4-(2,4-difluorophenoxy)piperidin-1-yl)phenyl)pyrazine-2-carboxamide], the “pEC50, in vitro inhibition of cAMP” value was determined as 6.2.

In the case of `COc1ccc(F)cc1C(=O)Nc1cc(C#N)ccc1N1CCC(Oc2ccc(F)cc2F)CC1` [Example 210, N-(5-cyano-2-(4-(2,4-difluorophenoxy)piperidin-1-yl)phenyl)-5-fluoro-2-methoxybenzamide], the “pEC50, in vitro inhibition of cAMP” value was 7.3. As for `COc1ncccc1C(=O)Nc1cc(C#N)ccc1N1CCN(Cc2cscn2)CC1` [Example 241, N-(5-cyano-2-(4-(thiazol-4-ylmethyl)piperazin-1-yl)phenyl)-2-methoxynicotinamide], the figure is 6.0. For the compound `COc1c(Cl)ccc(Cl)c1C(=O)Nc1cc(C#N)ccc1N1CCC(Oc2ccc(F)cc2F)CC1` [Example 206, 3,6-dichloro-N-(5-cyano-2-(4-(2,4-difluorophenoxy)piperidin-1-yl)phenyl)-2-methoxybenzamide], the “pEC50, in vitro inhibition of cAMP” value worked out at 5.1. The value for `COc1ccsc1C(=O)Nc1cc(C#N)ccc1N1CCC(Oc2ccc(F)cc2F)CC1` [Example 46, N-(5-cyano-2-(4-(2,4-difluorophenoxy)piperidin-1-yl)phenyl)-3-methoxythiophene-2-carboxamide] was 7.2; that for `Cc1csc(C(=O)Nc2cc(C#N)ccc2N2CCC(Oc3ccc(F)cc3F)CC2)n1` [Example 51, N-(5-cyano-2-(4-(2,4-difluorophenoxy)piperidin-1-yl)phenyl)-4-methylthiazole-2-carboxamide] was 6.8. As for `Cc1cc(C(=O)Nc2cc(C#N)ccc2N2CCC(Oc3ccc(F)cc3F)CC2)nn1C` [Example 113, N-(5-cyano-2-(4-(2,4-difluorophenoxy)piperidin-1-yl)phenyl)-1,5-dimethyl-1H-pyrazole-3-carboxamide], the figure is 6.9. The value for `COc1cncc(C(=O)Nc2cc(C#N)ccc2N2CCC(Oc3ccc(F)cc3F)CC2)n1` [Example 129, N-(5-cyano-2-(4-(2,4-difluorophenoxy)piperidin-1-yl)phenyl)-6-methoxypyrazine-2-carboxamide] was 7.2; that for `N#Cc1cnc(N2CCC(Oc3ccc(F)cc3F)CC2)c(NC(=O)c2cnccc2O)c1` [Example 61] was 6.4; that for `CCOc1ncccc1C(=O)Nc1cc(C#N)ccc1N1CCC(Oc2ccc(F)cc2F)CC1` [Example 28, N-(5-cyano-2-(4-(2,4-difluorophenoxy)piperidin-1-yl)phenyl)-2-ethoxynicotinamide] was 6.6. With `CC(C)c1ccc(C(=O)Nc2cc(C#N)ccc2N2CCC(Oc3ccc(F)cc3F)CC2)c(=O)n1C` [Example 186], the “pEC50, in vitro inhibition of cAMP” value worked out at 6.4.

Turning to `Cn1cccc(C(=O)Nc2ccccc2N2CCC(Oc3ccc(F)cc3F)CC2)c1=O` [Example 257, N-(2-(4-(2,4-difluorophenoxy)piperidin-1-yl)phenyl)-1-methyl-2-oxo-1,2-dihydropyridine-3-carboxamide], the “pEC50, in vitro inhibition of cAMP” value was 7.0. As for `COc1cc(F)cc(CN2CCN(c3ncc(C#N)cc3NC(=O)c3cn(C)nc3OC)CC2)c1` [Example 159, N-(5-cyano-2-(4-(3-fluoro-5-methoxybenzyl)piperazin-1-yl)pyridin-3-yl)-3-methoxy-1-methyl-1H-pyrazole-4-carboxamide], the figure is 6.0; as for `COc1ncc(F)cc1C(=O)Nc1cnc(C(=O)N(C)C)cc1N1CCC(Oc2ccc(F)cc2F)CC1` [Example 32], 7.0. Turning to `CCNC(=O)c1cc(N2CCC(Oc3ccc(F)cc3F)CC2)c(NC(=O)c2cccnc2OC)cn1` [Example 252, 4-(4-(2,4-difluorophenoxy)piperidin-1-yl)-N-ethyl-5-(2-methoxynicotinamido)picolinamide], the “pEC50, in vitro inhibition of cAMP” value is on record as 7.0. The value for `N#Cc1ccc(N2CCC(Oc3ccc(F)cc3F)CC2)c(NC(=O)c2ccc(O)nn2)c1` [Example 52, N-(5-cyano-2-(4-(2,4-difluorophenoxy)piperidin-1-yl)phenyl)-6-hydroxypyridazine-3-carboxamide] was 6.2; that for `COc1nn(C)cc1C(=O)Nc1cc(C#N)cnc1N1CCN(Cc2ccccc2OC(F)(F)F)CC1` [Example 167, N-(5-cyano-2-(4-(2-(trifluoromethoxy)benzyl)piperazin-1-yl)pyridin-3-yl)-3-methoxy-1-methyl-1H-pyrazole-4-carboxamide] was 6.5; that for `COc1cc(F)c(F)cc1CN1CCN(c2ncc(C#N)cc2NC(=O)c2cn(C)nc2OC)CC1` [Example 170, N-(5-cyano-2-(4-(4,5-difluoro-2-methoxybenzyl)piperazin-1-yl)pyridin-3-yl)-3-methoxy-1-methyl-1H-pyrazole-4-carboxamide] was 6.5.

In the case of `COc1c(F)cccc1C(=O)Nc1cc(S(C)(=O)=O)ccc1N1CCC(Oc2ccc(F)cc2F)CC1` [Example 10], the “pEC50, in vitro inhibition of cAMP” value was 6.9. The value for `COc1nn(C)cc1C(=O)Nc1cc(C#N)cnc1N1CCN(Cc2cccc(F)c2OC)CC1` [Example 160, N-(5-cyano-2-(4-(3-fluoro-2-methoxybenzyl)piperazin-1-yl)pyridin-3-yl)-3-methoxy-1-methyl-1H-pyrazole-4-carboxamide] was 6.5; that for `Cn1c(-c2ccccc2)ncc(C(=O)Nc2cc(C#N)ccc2N2CCC(Oc3ccc(F)cc3F)CC2)c1=O` [Example 183, N-(5-cyano-2-(4-(2,4-difluorophenoxy)piperidin-1-yl)phenyl)-1-methyl-6-oxo-2-phenyl-1,6-dihydropyrimidine-5-carboxamide] was 5.9.
